Source: ChEMBL document CHEMBL3045678, “Synthesis of Some New Antimicrobial Thiadiazolyl and Oxadiazolyl Quinoline Derivatives” (2005)
≈ marks a conversion by molar mass, not a printed value. Calls of active or inactive are those of the source. The rule behind the calls is not given here.

What was measured:
Assay type in all cases: functional
Staphylococcus aureus [1] = assay: Antimicrobial activity against Staphylococcus aureus ATCC 6538p at 1 mg/ml after 24 hr by cup diffusion technique; settings: for zone of inhibition at 1000 µg/mL: read-out: DIZ
Pseudomonas aeruginosa [2] = assay: Antimicrobial activity against Pseudomonas aeruginosa ATCC 9027 at 1 mg/ml after 24 hr by cup diffusion technique; settings: for zone of inhibition at 1000 µg/mL: ATCC 9027, 24 h, read-out: DIZ
Escherichia coli = assay: Antimicrobial activity against Escherichia coli NCTC 10418 at 1 mg/ml after 24 hr by cup diffusion technique; settings: for zone of inhibition at 1000 µg/mL: NCTC 10418, 24 h, read-out: DIZ
Candida albicans [3] = assay: Antimicrobial activity against Candida albicans ATCC 10231 at 1 mg/ml after 24 hr by cup diffusion technique; settings: for zone of inhibition at 1000 µg/mL: ATCC 10231, 24 h, read-out: DIZ
Pseudomonas aeruginosa [4] = assay: Antimicrobial activity against Pseudomonas aeruginosa ATCC 9027 after 24 hr by two-fold dilution method; settings: ATCC 9027, 24 h
Staphylococcus aureus [5] = assay: Antimicrobial activity against Staphylococcus aureus ATCC 6538p after 24 hr by two-fold dilution method
Candida albicans [6] = assay: Antimicrobial activity against Candida albicans ATCC 10231 after 48 hr by two-fold dilution method

Compound | zone of inhibition at 1000 µg/mL (Staphylococcus aureus [1]) [mm] | zone of inhibition at 1000 µg/mL (Pseudomonas aeruginosa [2]) [mm] | zone of inhibition at 1000 µg/mL (Escherichia coli) [mm] | zone of inhibition at 1000 µg/mL (Candida albicans [3]) [mm] | also measured
CCSc1nnc(NC(=O)c2ccnc3ccccc23)s1 | 15 | 14 | 17 | 17 | 
CCSc1nnc(NC(=O)c2cc(-c3ccccc3)nc3ccccc23)s1 | 15 | 20 | 19 | 18 | MBC (Pseudomonas aeruginosa [4]): 500 µg/mL (≈ 1270 µM); MIC (Pseudomonas aeruginosa [4]): 62.5 µg/mL (≈ 159 µM)
O=C(Nc1nnc(SCc2ccccc2)s1)c1ccnc2ccccc12 | 15 | 17 | 18 | 19 | 
CCSc1nnc(-c2cc(-c3ccccc3)nc3ccccc23)o1 |  | 15 | 18 | 19 | diameter of the inhibition zone (DIZ) (Staphylococcus aureus [1]): inactive
CS(=O)(=O)c1nnc(-c2cc(-c3ccccc3)nc3ccccc23)o1 | 20 | 15 | 18 | 18 | 
CSc1nnc(NC(=O)c2ccnc3ccccc23)s1 | 17 | 15 | 18 | 19 | 
CSc1nnc(NC(=O)c2cc(-c3ccccc3)nc3ccccc23)s1 | 15 | 20 | 16 | 18 | MBC (Pseudomonas aeruginosa [4]): > 500 µg/mL; MIC (Pseudomonas aeruginosa [4]): 250 µg/mL (≈ 661 µM)
CSc1nnc(-c2cc(-c3ccccc3)nc3ccccc23)o1 | 12 | 13 | 18 | 18 | 
CCS(=O)(=O)c1nnc(-c2cc(-c3ccccc3)nc3ccccc23)o1 | 18 | 13 | 17 | 18 | 
O=C(Nc1nnc(S(=O)(=O)Cc2ccccc2)s1)c1cc(-c2ccccc2)nc2ccccc12 | 20 | 14 | 19 | 18 | MBC (Staphylococcus aureus [5]): 500 µg/mL (≈ 1030 µM); MIC (Staphylococcus aureus [5]): 500 µg/mL (≈ 1030 µM)
Cc1cc(-c2n[nH]c(=S)o2)c2ccccc2n1 | 20 | 12 | 18 | 18 | MBC (Staphylococcus aureus [5]): > 500 µg/mL; MIC (Staphylococcus aureus [5]): 62.5 µg/mL (≈ 257 µM)
Cc1cc(-c2nnc(S(=O)(=O)Cc3ccccc3)o2)c2ccccc2n1 | 16 |  | 18 | 19 | diameter of the inhibition zone (DIZ) (Pseudomonas aeruginosa [2]): inactive
CS(=O)(=O)c1nnc(NC(=O)c2cc(-c3ccccc3)nc3ccccc23)s1 | 30 | 15 | 18 | 19 | MBC (Staphylococcus aureus [5]): 31.2 µg/mL (≈ 76.1 µM); MIC (Staphylococcus aureus [5]): 31.2 µg/mL (≈ 76.1 µM)
O=C(Nc1nnc(SCc2ccccc2)s1)c1cc(-c2ccccc2)nc2ccccc12 | 13 | 15 | 16 | 18 | 
Cc1cc(-c2nnc(S(C)(=O)=O)o2)c2ccccc2n1 | 19 | 13 | 18 | 27 | MBC (Candida albicans [6]; ATCC 10231, 48 h): 125 µg/mL (≈ 432 µM); MIC (Candida albicans [6]; ATCC 10231, 48 h): 31.2 µg/mL (≈ 108 µM)
CSc1nnc(-c2cc(C)nc3ccccc23)o1 | 17 | 13 | 17 | 26 | MBC (Candida albicans [6]; ATCC 10231, 48 h): 125 µg/mL (≈ 486 µM); MIC (Candida albicans [6]; ATCC 10231, 48 h): 125 µg/mL (≈ 486 µM)

Compound | zone of inhibition at 1000 µg/mL (Staphylococcus aureus [1]) [mm] | zone of inhibition at 1000 µg/mL (Pseudomonas aeruginosa [2]) [mm] | zone of inhibition at 1000 µg/mL (Escherichia coli) [mm] | zone of inhibition at 1000 µg/mL (Candida albicans [3]) [mm] | also measured
Cc1cc(C(=O)Nc2nnc(S(=O)(=O)Cc3ccccc3)s2)c2ccccc2n1 | 28 | 13 | 19 | 19 | MBC (Staphylococcus aureus [5]): > 500 µg/mL; MIC (Staphylococcus aureus [5]): 62.5 µg/mL (≈ 147 µM)
O=C(Nc1nnc(S(=O)(=O)Cc2ccccc2)s1)c1ccnc2ccccc12 | 27 | 20 | 18 | 19 | MBC (Staphylococcus aureus [5]): 500 µg/mL (≈ 1220 µM); MIC (Staphylococcus aureus [5]): 125 µg/mL (≈ 305 µM); MBC (Pseudomonas aeruginosa [4]): > 500 µg/mL; MIC (Pseudomonas aeruginosa [4]): 62.5 µg/mL (≈ 152 µM)
Cc1cc(-c2nnc(SCc3ccccc3)o2)c2ccccc2n1 | 13 |  | 18 | 19 | diameter of the inhibition zone (DIZ) (Pseudomonas aeruginosa [2]): inactive
CCS(=O)(=O)c1nnc(-c2cc(C)nc3ccccc23)o1 | 16 | 16 | 19 | 24 | MBC (Candida albicans [6]; ATCC 10231, 48 h): 125 µg/mL (≈ 412 µM); MIC (Candida albicans [6]; ATCC 10231, 48 h): 125 µg/mL (≈ 412 µM)
CCS(=O)(=O)c1nnc(NC(=O)c2cc(C)nc3ccccc23)s1 | 13 | 13 | 17 | 18 | 
O=S(=O)(Cc1ccccc1)c1nnc(-c2cc(-c3ccccc3)nc3ccccc23)o1 | 12 |  | 18 | 19 | diameter of the inhibition zone (DIZ) (Pseudomonas aeruginosa [2]): inactive
CCSc1nnc(NC(=O)c2cc(C)nc3ccccc23)s1 | 17 | 14 | 18 | 18 | 
c1ccc(CSc2nnc(-c3cc(-c4ccccc4)nc4ccccc34)o2)cc1 | 13 |  | 18 | 18 | diameter of the inhibition zone (DIZ) (Pseudomonas aeruginosa [2]): inactive
O=C(O)c1cn(C2CC2)c2cc(N3CCNCC3)c(F)cc2c1=O [CIPROFLOXACIN] | 25 | 40 | 30 |  | MIC (Staphylococcus aureus [5]): 2 µg/mL (≈ 6.04 µM); MIC (Pseudomonas aeruginosa [4]): 4 µg/mL (≈ 12.1 µM); diameter of the inhibition zone (DIZ) (Candida albicans [3]): inactive
CCS(=O)(=O)c1nnc(NC(=O)c2ccnc3ccccc23)s1 | 20 | 20 | 19 | 19 | MBC (Staphylococcus aureus [5]): > 500 µg/mL; MIC (Staphylococcus aureus [5]): 125 µg/mL (≈ 359 µM); MBC (Pseudomonas aeruginosa [4]): 125 µg/mL (≈ 359 µM); MIC (Pseudomonas aeruginosa [4]): 125 µg/mL (≈ 359 µM)
Cc1cc(C(=O)Nc2nnc(SCc3ccccc3)s2)c2ccccc2n1 | 15 | 17 | 18 | 24 | MBC (Candida albicans [6]; ATCC 10231, 48 h): 250 µg/mL (≈ 637 µM); MIC (Candida albicans [6]; ATCC 10231, 48 h): 250 µg/mL (≈ 637 µM)
NYSTATIN |  |  |  |  | MIC (Candida albicans [6]): 25 µg/mL; diameter of the inhibition zone (DIZ) (Staphylococcus aureus [1]): inactive; diameter of the inhibition zone (DIZ) (Pseudomonas aeruginosa [2]): inactive; diameter of the inhibition zone (DIZ) (Escherichia coli): inactive; inhibition zone (IZ) (Candida albicans [3]): 37 mm
CCS(=O)(=O)c1nnc(NC(=O)c2cc(-c3ccccc3)nc3ccccc23)s1 | 31 | 15 | 19 | 19 | MBC (Staphylococcus aureus [5]): 125 µg/mL (≈ 294 µM); MIC (Staphylococcus aureus [5]): 125 µg/mL (≈ 294 µM)
CCSc1nnc(-c2cc(C)nc3ccccc23)o1 | 15 |  | 19 | 19 | diameter of the inhibition zone (DIZ) (Pseudomonas aeruginosa [2]): inactive
CS(=O)(=O)c1nnc(NC(=O)c2ccnc3ccccc23)s1 | 13 | 13 | 18 | 19 | 
